Laboratory results from PubChem BioAssay (NCI).
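Growth conditions: 96-well plates. Treatment: test compound, 48 hours, 5 concentrations. Analysis: linear interpolation between bracketing concentrations; unreached endpoints set to highest concentration. GI50 marks 50% less growth. At the TGI there is no net growth.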

Columns and labels:
Experiment in all cases: NCI-60 cell line screen, 48 h
[1] = test system: A498 renal
[2] = test system: SF-539 CNS
[3] = test system: SK-MEL-5 melanoma
[4] = test system: U251 CNS
[5] = test system: HCT-116 colon
[6] = test system: M14 melanoma
[7] = test system: HT29 colon
[8] = test system: A549 NSCLC
[9] = test system: SNB-75 CNS
[10] = test system: SF-268 CNS

Compound | TGI [1] [µM] | TGI [2] [µM] | TGI [3] [µM] | TGI [4] [µM] | TGI [5] [µM] | TGI [6] [µM] | TGI [7] [µM] | TGI [8] [µM] | TGI [9] [µM] | TGI [10] [µM] | GI50 [1] [µM] | GI50 [2] [µM] | GI50 [3] [µM] | GI50 [4] [µM] | GI50 [5] [µM] | GI50 [6] [µM] | GI50 [7] [µM] | GI50 [8] [µM] | GI50 [9] [µM] | GI50 [10] [µM]
CN1C(=O)c2ccccc2NC(=O)C12O[C@@H]2c1cccc(O)c1 (stereo not given in full) | > 100 | > 100 | > 100 | > 100 | > 100 | > 100 | > 100 | > 100 | > 100 | > 100 | – | – | – | – | – | – | – | – | – | –
N#CCc1ccc(C(C#N)/C(CCCC(=O)Nc2cccc([N+](=O)[O-])c2)=N/NC(N)=S)cc1 (stereo not given) | > 100 | > 100 | > 100 | > 100 | > 100 | > 100 | > 100 | > 100 | > 100 | > 100 | – | – | – | – | – | – | – | – | – | –
Nc1nc(-c2cccc(Cl)c2)c(-c2ccc3ncccc3n2)s1 | > 25 | > 25 | > 25 | > 25 | > 25 | > 25 | > 25 | > 25 | > 25 | > 25 | 8.4 | > 25 | > 19.6 | > 25 | > 25 | > 25 | > 25 | > 25 | > 25 | > 25
COc1ccc(C2SCC(=O)N2NC(=O)Nc2c(C)nc3ccccn23)cc1 (stereo not given) | 60.3 | > 100 | > 100 | 27.9 | 42.8 | > 100 | > 100 | > 100 | 19.9 | > 100 | 27.8 | 34.1 | > 100 | 13.8 | 17.1 | > 100 | > 100 | > 100 | 4.76 | 39.7
COc1ccc(-c2nnc(COc3ccc(NC(=O)Nc4ccc(Cl)c(C(F)(F)F)c4)cc3F)o2)cc1 | 20 | 19.6 | 5.36 | 5.7 | 11.7 | 16.5 | 22.4 | 18.7 | 8.36 | 36.1 | 3.19 | 5.01 | 2.1 | 1.93 | 2.49 | 3.13 | 3.57 | 3.25 | 1.48 | 6.01
O=C(/C(=C/c1cccc([N+](=O)[O-])c1)c1ccccc1)c1ccccc1 | 12.9 | 11.9 | 6.73 | 8.16 | 4.25 | 18.9 | 8.83 | 30.1 | 7.65 | 15.5 | 2.69 | 3.49 | 2.39 | 2.72 | 2.01 | 3.45 | 3.24 | 4.31 | 2.3 | 3.9
CCc1oc2ccccc2c1C(=O)c1cc(I)c(O)c(I)c1 | 17 | 10.4 | 13.9 | 18.3 | 12 | 5.3 | 14.5 | 17.6 | 6.43 | 15.2 | 3.84 | 2.28 | 3.2 | 4.4 | 2.91 | 1.24 | 3.61 | 3.61 | 1.54 | 2.89
CCCCN1CSC(=S)N(Cc2ccccc2)C1 | > 100 | > 100 | 67.5 | > 100 | > 100 | > 100 | > 100 | > 100 | > 100 | > 100 | – | – | – | – | – | – | – | – | – | –
CC1(C)N=C(N)N=C(N)N1c1ccc(OCc2ccc(S(=O)(=O)F)c(Cl)c2)c(Cl)c1 | > 100 | > 100 | > 100 | > 100 | > 100 | > 100 | > 100 | > 100 | > 100 | > 100 | > 100 | 4.57 | 1.03 | 2.9 | 0.51 | 1.52 | 0.845 | 0.499 | 4.92 | 2.85
Cn1cnc([N+](=O)[O-])c1[Se]c1nc(N)nc2c1ncn2C1OC(CO)C(O)C1O (stereo not given) | > 100 | > 100 | > 100 | > 100 | > 100 | > 100 | > 100 | > 100 | > 100 | > 100 | – | – | – | – | – | – | – | – | – | –
CC1=N/C(=C\c2cccc([N+](=O)[O-])c2)C(=O)O1 | > 100 | > 100 | > 100 | > 100 | > 100 | > 100 | > 100 | > 100 | 91 | > 100 | – | – | – | – | – | – | – | – | – | –
O=C1/C(=C/c2ccc(O)cc2)CSc2ccc(Cl)cc21 | 28.4 | 31.4 | 24.7 | 15.8 | > 100 | 62.2 | 89.7 | > 100 | 54.8 | 41.3 | 15 | 16.8 | 12.3 | 4.21 | 7.08 | 10 | 16.5 | 32 | 18.3 | 15.4
Cc1nc(-c2ccccc2)c(-c2ccccc2)s1 | 64.4 | 71.4 | 27.5 | 29.5 | 68.8 | 41.1 | 41.7 | 89 | > 100 | 78.6 | – | – | – | – | – | – | – | – | – | –
COc1cc2c(c(OC)c1OC)-c1c(cc3c(c1OC)OCO3)C1OC2C(C)C1C (stereo not given) (tested in a mixture with another compound) | > 100 | > 100 | > 100 | > 100 | > 100 | > 100 | > 100 | > 100 | > 100 | > 100 | – | – | – | – | – | – | – | – | – | –
CSc1nc2cc(S(=O)(=O)N3CCCCC3)ccc2s1 | > 100 | > 100 | > 100 | > 100 | > 100 | > 100 | > 100 | > 100 | > 100 | > 100 | – | – | – | – | – | – | – | – | – | –
